Among the data in PMC7374424, “Ion-Selective Carbon Nanotube Field-Effect Transistors for Monitoring Drug Effects on Nicotinic Acetylcholine Receptor Activation in Live Cells” (Sensors (Basel, Switzerland), 2020) are IC50 and Kd values, retold here.

Like-named read-outs stand apart in the source and are kept apart here.

The test system of assay [1] is nicotinic acetylcholine receptor (nAChR), native in PC12 cells, subunits not specified. The experiment in a line: inhibition of […] nicotine-induced K+ release from PC12 cells, ion-selective CNT-FET. Format: cell-based, Rattus norvegicus.
Assay [2] shares this test system.
Assay [3] shares this test system. In words: agonist-induced K+ release from PC12 cells by ion-selective CNT-FET, Hill fit. It is filed as cell-based, Rattus norvegicus.

Turning to `CNC1(C)C2CCC(C2)C1(C)C` (stereo not shown) [MH, mecamylamine], the IC50 in assay [1] is listed as 5.74 ± 0.54 pIC50.

Broadly, the Kd is the free concentration of one partner at which half of the binding sites on the other are occupied at equilibrium, for simple one-to-one binding. Read a high Kd as lower affinity. Compound `CN1CCC[C@H]1c1cccnc1` [nicotine] yielded a Kd in assay [2] of […].

Regarding `CC(=O)OCC[N+](C)(C)C` [acetylcholine], binding in assay [3] was put at a Kd of […].

`C[N+](C)(C)CCCCCC[N+](C)(C)C` [HB, hexamethonium] had an IC50 in assay [1] of 4.58 ± 0.85 pIC50.
